For series [1], the system named is Clinical isolates of P. aeruginosa from cystic fibrosis patients. In words: Detachment of mature biofilms on peg lids, crystal violet. The class given is cell-based. To be noted: 5 ug/ml, approximately 40 hours; eighteen clinical isolates; compared to negative controls. The method, then: Clinical isolates of P. aeruginosa from cystic fibrosis patients were passed twice on tryptic soy agar with 5% sheep blood after retrieval from −80° C. and then grown overnight in CAMHB. After dilution of a culture to 0.5 McFarland in broth medium, 100 μl was transferred in triplicate to wells of a flat-bottom 96-well microtiter plate. Bacterial biofilms were formed by immersing the pegs of a modified polystyrene microtiter lid into this biofilm growth plate, followed by incubation at 37° C. for 20 hours with no movement.
Peg lids were rinsed three times in sterile water, placed onto flat-bottom microtiter plates containing biofilm inhibitors at 5 ug/ml in 100 μl of CAMHB per well and incubated for approximately 40 hours at 37° C.
Pegs were rinsed, placed in a 0.1% (wt/vol) crystal violet solution for 15 min, rinsed again, and dried for several hours. To solubilize adsorbed crystal violet, pegs were incubated in 95% ethanol (150 μl per well of a flat-bottom microtiter plate) for 15 min. The absorbance was read at 590 nm on a plate reader. The wells containing asiatic acid were compared to negative controls. Negative controls were prepared as stated above but without asiatic acid.

Series [2] relates to E. coli UT189[pCOMGFP]. Description: Biofilm pods (IBCs) in bladders of infected mice, intravesical compound, confocal microscopy. The class given is in vivo, Escherichia coli. To be noted: vs controls. As for the experimental part: The procedures in this example has been previously reported by Justice, S. et al. Differentiation and development pathways of uropathogenic Escherichia coli in urinary tract pathogenesis. PNAS, 2004, 101(5), p. 1333-1338. Briefly, E. coli UT189[pCOMGFP] was prepared after retrieval from frozen stocks by inoculating appropriately in LB medium statically for approximately 20 hours. Cells were harvested and suspended in 1 ml of PBS. Cells were diluted appropriately to achieve approximately a 10^8 CFU or 10^7 CFU input into C3H/HeN mice (2 mice per group).
Mice were deprived of water for approximately two hours. In experiment 1, all mice were anesthetized with 0.15 cc ketamine cocktail. In experiment 2, all mice were anesthetized with isofluorane. In experiment 1, urine was dispelled from the bladders and approximately 40 μg/ml of test compound or an appropriate amount of ethanol as control was introduced into the bladders via catheterization of the urethra using a tubing coated tuberculin syringe. 30 minutes was allowed to elapse. In experiment 2, bladders were not pre-incubated with test compounds. Bladders were then expelled and an inoculum of 10^8 CFU (Experiment 1) or 10^7 CFU (Experiment 2) of E. coli containing 40 μg/ml of test compound or equivalent amount of ethanol as controls were introduced into the bladders as indicated above.
In experiment 1 five hours elapsed and in experiment 2 six hours elapsed, and then mice were anesthetized and sacrificed appropriately. The bladders were removed, bisected, stretched, and fixed in 3% paraformaldehyde for 1 hour at room temperature. Bladders were then permeabilized in 0.01% Triton/PBS for 10 minutes and counter stained with TOPRO3 (Molecular Probes) for 10 minutes for visualization by confocal microscopy. Bladders were mounted on Prolong antifade (Molecular Probes).

Series [3] concerns Haemophilus influenzae (ATCC 10211). In words: Antibacterial effect (MIC), NCCLS procedures. The class given is cell-based. To be noted: ATCC10211, studied at 64 μg/mL, read-out: MIC (minimal inhibitory concentration). The method, then: (§1) Using the appropriate NCCLS procedures, the antibacterial effect of asiatic acid on Haemophilus influenzae (ATCC 10211), E. coli (ATCC 25922), and P. aeruginosa (ATCC 27853) was studied at 64 μg/mL.

Series [4] has as its system E. coli (ATCC 25922). Description: Antibacterial effect (MIC), NCCLS procedures. The class given is cell-based. The note with it: Escherichia coli, ATCC25922; studied at 64 μg/mL; read-out: MIC (minimal inhibitory concentration). As for the experimental part:
as §1

In series [5] the test system is P. aeruginosa (ATCC 27853). Description: Antibacterial effect (MIC), NCCLS procedures. To be noted: Pseudomonas aeruginosa, ATCC27853; studied at 64 μg/mL; read-out: MIC (minimal inhibitory concentration). The class given is cell-based. The method, then: as §1
The nature of series [6]: Bladder concentrations in rats (pharmacokinetic study). To be noted: rat, in vivo, po, 50 mg/kg. As for the experimental part:
Pharmacokinetic studies of asiatic acid and madecassic acid in rats were performed separately. Asiatic acid and madecassic acid were evaluated at 50 mg/kg (oral). Two animals were assigned to the each group. Prior to dosing, a baseline blood sample was taken from each animal. At time zero for asiatic acid and madecassic acid, a single bolus dose in 50% Labrasol (Gattefosse) was given to each animal. Bladders were analyzed at 24 hours. Concentrations of both asiatic acid and madecassic acid in the bladder were approximately 30 μg/g at 24 hours.

The test system of series [7] is E. coli laboratory strain JM109. Description: Inhibition of biofilm formation, crystal violet, 96 well plates. It counts as cell-based. The note with it: Escherichia coli, JM 109, compared to the controls, read-out: inhibited biofilm formation of the JM109 strain. The method, then: (§2) Biofilm inhibition experiments were conducted using an assay adapted from the reported protocol described in Pratt and Kolter, 1998, Molecular Microbiology, 30: 285-293; Li et al., 2001, J. Bacteriol., 183: 897-908. E. coli clinical strain UT189 was grown in LB in 96 well plates at room temperature for one or two days without shaking. E. coli laboratory strain JM109 was grown in LB plus 0.2% glucose in 96 well plates at room temperature for one day without shaking. To quantify the biofilm mass, the suspension culture was poured out and the biofilm was washed three times with water. The biofilm was stained with 0.1% crystal violet for 20 minutes. The plates were then washed three times with water. OD reading at 540 nm was measured to quantify the biofilm mass at the bottom of the wells. Then 95% ethanol was added to dissolve the dye at the bottom and on the wall and the OD reading at 540 nm was measured to quantify the total biofilm mass. To study the overall effect of the compounds (3.6 mg/mL in 100% ethanol as stock solution), it was added with the inoculation and a time course of biofilm mass was measured. Appropriate amounts of 100% ethanol were added to each sample to eliminate the effect of solvent. Each condition had 3-4 replicates on each plate and was performed over multiple days.

For series [8], the system named is E. coli clinical strain UT189. The series is described as above. The class given is cell-based. The note with it: Escherichia coli, compared to the controls, read-out: inhibited biofilm formation of the UT189 strain. As for the experimental part: as §2
The test system of series [9] is E. coli UTI89[pCOMGFP]. In words: Bladder colonization (CFU) in infected mice, oral treatment. It counts as in vivo, Escherichia coli. To be noted: C3H/HeN mice, approximately 2 days after inoculation.
Protocol: Briefly, E. coli UTI89[pCOMGFP] was prepared after retrieval from frozen stocks by inoculating appropriately in LB medium statically for approximately 20 hours. Cells were harvested and suspended in 1 ml of PBS. Cells were diluted appropriately to achieve approximately 10^7 CFU input into C3H/HeN mice.
Mice were deprived of water for approximately two hours. All mice were anesthetized with isofluorane. Urine was dispelled from the bladders and an inoculum of approximately 10^7 CFU of E. coli were introduced into the bladders as indicated above. Treatments of sulfamethoxazole and trimethoprim (SMZ/TMP), asiatic acid, and combination of SMZ/TMP and asiatic acid was evaluated.
3 mice received asiatic acid by orally at approximately 25 milligram per kilogram twice a day beginning one day prior to infection each day during the experiment. Asiatic acid was prepared in 50% Labrasol®. 5 mice received SMZ/TMP in their drinking water at a concentration of 270 micrograms of SMZ per millilter and 54 micrograms of TMP per milliliter immediately after infection throughout the experiment. 5 mice received asiatic acid and SMZ/TMP in combination dosed according to the individual dosing groups. The experiment was performed for approximately 2 days after inoculation. […] The bladders were removed and colony forming units (CFU) were determined as previously described by Justice, S. et al.

Structures are written as SMILES.

`C[C@H]1[C@H](C)CC[C@]2(C(=O)O)CC[C@]3(C)C(=CC[C@@H]4[C@@]5(C)C[C@@H](O)[C@H](O)[C@@](C)(CO)[C@@H]5CC[C@]43C)[C@H]12` [Asiatic acid]: the “average detachment of mature biofilms” value in [1] is “approximately 50%”. Besides, in series [2] (experiment 1: C3H/HeN mice, 40 μg/ml intravesical with 30 min pre-incubation, 10^8 CFU, five hours), the “reduction in biofilm pods or IBCs in the bladders of mice” value is 77%. Also, the “reduction in large biofilm pods or large IBCs in the bladders of mice” value in series [2] (experiment 2: C3H/HeN mice, 40 μg/ml in inoculum, no pre-incubation, 10^7 CFU, six hours) is given as around 60%. Moreover, the MIC in [3], in series [4] and in [5] was above 64 µg/mL throughout. Moreover, the concentration at 24 h in series [6] was around 30000 ng/g. Moreover, the inhibition at 5 µg/mL in series [7] (5 ug/ml) was around 70%. Moreover, the inhibition at 10 µg/mL in series [7] (10 ug/ml) was around 80%. Further, the inhibition at 4 µg/mL in series [8] (4 ug/ml) is around 10%. Further, the inhibition at 8 µg/mL in [8] (8 ug/ml) was around 15%. The inhibition at 16 µg/mL in series [8] (16 ug/ml) was around 50%. The inhibition at 32 µg/mL in series [8] (32 ug/ml) was around 90%. For the same molecule, the “bladder CFU” value in series [9] (combination of SMZ/TMP and asiatic acid) is listed as 2.3×10^4 CFU; in series [9] (single treatment (asiatic acid 25 mg/kg oral twice a day; SMZ/TMP 270/54 micrograms per ml in drinking water)) it was 2.9×10^3 CFU.

(Values after US20070014739A1, “Compositions and methods for controlling biofilms and bacterial infections” (priority 2005, published 2007).)
